Data from patent publication US4879296A, “Xanthine derivatives” (Burroughs Wellcome co., priority 1985, dated 1989).

Experiments:
[1] = target: T1, ADO-induced prolongation of the atrio-to-His bundle conduction time (Cavia porcellus, UniProt P47745); test: Inhibition of ADO-induced prolongation of the atrio-to-His bundle conduction time in isolated, perfused guinea-pig heart; conditions: five animals; 5 μm ADO infusion; Eadie-Scatchard plot of %INH; read-out: mean Kd(50)
T1 construct: isolated, perfused guinea-pig heart preparations; from tissue; host or cells: isolated, perfused guinea-pig heart
T1 sequence (P47745 1-326): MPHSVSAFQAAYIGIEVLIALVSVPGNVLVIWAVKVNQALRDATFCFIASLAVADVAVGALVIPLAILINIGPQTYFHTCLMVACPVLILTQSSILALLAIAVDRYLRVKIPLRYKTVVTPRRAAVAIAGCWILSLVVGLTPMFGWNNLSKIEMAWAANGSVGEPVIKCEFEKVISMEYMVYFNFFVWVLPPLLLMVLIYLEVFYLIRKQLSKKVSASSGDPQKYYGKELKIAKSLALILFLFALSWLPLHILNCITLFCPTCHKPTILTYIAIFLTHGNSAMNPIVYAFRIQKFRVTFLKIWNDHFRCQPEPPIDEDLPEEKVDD
Description: The ability of (E)-4-(1,2,3,6-tetrahydro-1,3-dimethyl-2,6-dioxo-9H-purin-8-yl)cinnamic acid to inhibit ADO-induced prolongation of the atrio-to-His bundle conduction time and, thus, its potential for the treatment of cardiac disorders including heart block, was evaluated in isolated, perfused guinea-pig heart preparations.
Male and female guinea-pigs were sacrificed by a blow to the head, and their hearts were quickly removed. The heart was then hung on a retro-grade aortic infusion apparatus. […]
Pacing was initiated at a rate that ensured one to one capture and later was set to 2-3 Hz. […] Two antagonists were evaluated per guinea-pig. […]
A.V. conduction times were measured from the HBE and LAE. […] Differences were then calculated by subtracting the control interval in question. Percentage ADO prolongation inhibition (%INH) was calculated by subtracting the A-A difference from the ADO difference, dividing by ADO difference, and multiplying by 100, thus %INH=(ADO diff.-ant. diff.)/ADO diff.*100.
The Kd(50) was then evaluated by an Fadie-Scatchard plot, where (%INH)/(antagonist conc.) was plotted on the ordinate and %INH on the abscissa. […]

[2] = Standard LD50 test, intraperitoneal, mice; conditions: mouse, in vivo, ip
Description: The toxicity of a representative number of compounds of the present invention was determined by using the standard LD50 test.

purine receptors = target: T2, purine receptors (Cavia porcellus, UniProt P47745); test: Purine receptor antagonism in guinea pig ileum twitch test (agonist 2-chloroadenosine, Schild regression); conditions: for slope (Schild regression): value in brackets beside pA2, guinea pig ileum; for Kb: vs 2-chloroadenosine, Schild regression, may be considered the pKb, read-out: pA2 Guinea pig ileum (converted)
T2 construct: Ilea were removed from sacrificed guinea pigs and placed in organ baths; from tissue; host or cells: guinea pig ileum
T2 sequence (P47745 1-326): T1 sequence (P47745 1-326)
Description: Accordingly, a representative number of compounds of the present invention were tested for their ability to antagonise the purine receptors using the guinea pig ileum test system.
Ilea were removed from sacrificed guinea pigs and placed in organ baths containing oxygenated Krebs-Henseleit buffer. After equilibration, the ilea were stimulated to contract (twitch contraction) using an electrical field-stimulus of 0.1 Hz, 0.05 ms duration and maximal voltage. Under these conditions, the twitch contraction results from the release of acetylcholine.
Concentration response curves to the purine agonist, 2-chloroadenosine, were determined first in the absence and then in the presence of multiple concentrations of the compounds of the invention. One concentration of each compound was used per tissue. Quantification of purine receptor antagonism was accomplished using the Schild regression technique, i.e. plots of log (dose-ratio-1) vs log compound concentration, and the pA2 determined by regression of the data points to the x-intercept, where log (dose-ratio-1) is zero.

SMILES | Kd [1] [nM] | LD50 [2] [mg/kg] | slope (Schild regression) (purine receptors) | Kb (purine receptors) [nM]
Cn1c(=O)c2nc(-c3ccc(/C=C/C(=O)O)cc3)[nH]c2n(C)c1=O [Example 1, (E)-4-(1,2,3,6-tetrahydro-1,3,-dimethyl-2,6-dioxo-9H-purin-8-yl)cinnamic acid] | 190 | > 500 |  | 
CCCn1c(=O)c2nc(-c3ccc(/C=C/C(=O)O)cc3)[nH]c2n(CCC)c1=O [Example 6, (E)-4-(1,2,3,6-tetrahydro-2,6-dioxo-1,3-dipropyl-9H-purin-8-yl)cinnamic acid] |  | > 500 | 0.9 | 20
CC(C)Cn1c(=O)[nH]c(=O)c2nc(-c3ccc(/C=C/C(=O)O)cc3)[nH]c21 [Example 10, (E)-4-(1,2,3,6-tetrahydro-3-isobutyl-2,6-dioxo-9H-purin-8-yl)cinnamic acid] |  | > 100 |  | 
CCCn1c(=O)n(C)c(=O)c2nc(-c3ccc(/C=C/C(=O)O)cc3)[nH]c21 [Example 11, (E)-4-(1,2,3,6-tetrahydro-1-methyl-2,6-dioxo-3-propyl-9H-purin-8-yl)cinnamic acid] |  |  | 1.0 | 100
CC(C)Cn1c(=O)n(C)c(=O)c2nc(-c3ccc(/C=C/C(=O)O)cc3)[nH]c21 [Example 12, (E)-4-(1,2,3,6-tetrahydro-3-isobutyl-1-methyl-2,6-dioxo-9H-purin-8-yl)cinnamic acid] |  | > 100 |  | 
CCCCn1c(=O)c2nc(-c3ccc(/C=C/C(=O)O)cc3)[nH]c2n(CCCC)c1=O [Example 14, (E)-4-(1,3-dibutyl-1,2,3,6-tetrahydro-2,6-dioxo-9H-purin-8-yl)cinnamic acid] |  | > 100 | 1.0 | 31.6
O=C(O)/C=C/c1ccc(-c2nc3c(=O)n(Cc4ccccc4)c(=O)n(Cc4ccccc4)c3[nH]2)cc1 [Example 15, (E)-4-(1,3-dibenzyl-1,2,3,6-tetrahydro-2,6-dioxo-9H-purin-8-yl)cinnamic acid] |  |  | 0.9 | 79.4
CCCCn1c(=O)n(C)c(=O)c2nc(-c3ccc(/C=C/C(=O)O)cc3)[nH]c21 [Example 16, (E)-4-(3-butyl-1,2,3,6-tetrahydro-1-methyl-2,6-dioxo-9H-purin-8-yl)cinnamic acid] |  | > 100 |  | 
Cn1c(=O)c2nc(-c3ccc(/C=C/C(=O)O)cc3)[nH]c2n(Cc2ccccc2)c1=O [Example 18, (E)-4-(3-benzyl-1,2,3,6-tetrahydro-1-methyl-2,6-dioxo-9H-purin-8-yl)cinnamic acid] |  | > 100 | 0.9 | 79.4
CC(C)Cn1c(=O)c2nc(-c3ccc(/C=C/C(=O)O)cc3)[nH]c2n(CC(C)C)c1=O [Example 19, (E)-4-(1,2,3,6-tetrahydro-1,3-diisobutyl-2,6-dioxo-9H-purin-8-yl)cinnamic acid] |  |  | 1.0 | 35.5
Cn1c(=O)c2[nH]cnc2n(C)c1=O [THEOPHYLLINE, 1,3-dimethylxanthine, reference compound] |  |  | 1.1 | 
